Measurements published in the supplement of paper PMC10307832.

How the values were obtained:
Experiment in all cases: relative viability (nuclei count vs DMSO), 5 days (fraction); higher = more cells survive
RO-3306 + Crizotinib = compound: C1=CC2=C(C=CC(=C2)C=C3C(=O)NC(=NCC4=CC=CS4)S3)N=C1 [RO-3306] + C[C@@H](Oc1cc(-c2cnn(C3CCNCC3)c2)cnc1N)c1c(Cl)ccc(F)c1Cl [Crizotinib] (partner 1 µM)
Outline: (§1)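 Relative viability equals treated-well nuclei counts divided by vehicle-well nuclei counts. Counts came from 4× images of lung cancer cell lines grown in 1536-well plates for 5 days after pin-tool dosing on the day after seeding. Dosing used one drug alone or a fixed anchor-drug dose plus five library-drug doses (not always all listed) in √10 steps, and values are medians of duplicate plates.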

RO-3306 + Foretinib = compound: C1=CC2=C(C=CC(=C2)C=C3C(=O)NC(=NCC4=CC=CS4)S3)N=C1 [RO-3306] + COc1cc2c(Oc3ccc(NC(=O)C4(C(=O)Nc5ccc(F)cc5)CC4)cc3F)ccnc2cc1OCCCN1CCOCC1 [Foretinib] (partner 0.25 µM)
Outline: as §1

RO-3306 + Trametinib = compound: C1=CC2=C(C=CC(=C2)C=C3C(=O)NC(=NCC4=CC=CS4)S3)N=C1 [RO-3306] + CC(=O)Nc1cccc(-n2c(=O)n(C3CC3)c(=O)c3c(Nc4ccc(I)cc4F)n(C)c(=O)c(C)c32)c1 [Trametinib] (partner 0.02 µM)
Outline: as §1

RO-3306 + Decitabine = compound: C1=CC2=C(C=CC(=C2)C=C3C(=O)NC(=NCC4=CC=CS4)S3)N=C1 [RO-3306] + Nc1ncn([C@H]2C[C@H](O)[C@@H](CO)O2)c(=O)n1 [Decitabine] (partner 2 µM)
Outline: as §1

Row | Cell Line | relative viability (RO-3306 + Crizotinib; first compound 0.01 µM) | relative viability (RO-3306 + Crizotinib; first compound 0.03162 µM) | relative viability (RO-3306 + Crizotinib; first compound 0.1 µM) | relative viability (RO-3306 + Crizotinib; first compound 0.3162 µM) | relative viability (RO-3306 + Crizotinib; first compound 1 µM) | relative viability (RO-3306 + Foretinib; first compound 0.01 µM) | relative viability (RO-3306 + Foretinib; first compound 0.03162 µM) | relative viability (RO-3306 + Foretinib; first compound 0.1 µM) | relative viability (RO-3306 + Foretinib; first compound 0.3162 µM) | relative viability (RO-3306 + Foretinib; first compound 1 µM) | relative viability (RO-3306 + Trametinib; first compound 0.01 µM) | relative viability (RO-3306 + Trametinib; first compound 0.03162 µM) | relative viability (RO-3306 + Trametinib; first compound 0.1 µM) | relative viability (RO-3306 + Trametinib; first compound 0.3162 µM) | relative viability (RO-3306 + Trametinib; first compound 1 µM) | relative viability (RO-3306 + Decitabine; first compound 0.01 µM) | relative viability (RO-3306 + Decitabine; first compound 0.03162 µM) | relative viability (RO-3306 + Decitabine; first compound 0.1 µM) | relative viability (RO-3306 + Decitabine; first compound 0.3162 µM) | relative viability (RO-3306 + Decitabine; first compound 1 µM)
1 | LU99A | 0.644 | 0.556 | 0.576 | 0.579 | 0.568 | 0.869 | 0.798 | 0.844 | 0.835 | 0.733 | 0.638 | 0.522 | 0.556 | 0.554 | 0.575 | 1.21 | 0.702 | 0.915 | 0.926 | 1
2 | NCI-H1915 | 1.07 | 0.783 | 0.882 | 0.903 | 0.876 | 1.14 | 0.891 | 1.15 | 1.11 | 1.23 | 0.319 | 0.276 | 0.297 | 0.32 | 0.292 | 0.245 | 0.262 | 0.252 | 0.239 | 0.251
3 | NCI-H2405 | 0.863 | 0.786 | 0.864 | 0.828 | 0.794 | 1.05 | 1.06 | 1.03 | 1.03 | 0.961 | 0.637 | 0.557 | 0.636 | 0.63 | 0.613 | 0.703 | 0.751 | 0.803 | 0.685 | 0.727
4 | NCI-H661 | 1.03 | 1.22 | 1.06 | 0.773 | 1.07 | 1.01 | 1.07 | 0.981 | 0.985 | 0.999 | 0.691 | 0.503 | 0.584 | 0.586 | 0.567 | 0.589 | 0.507 | 0.525 | 0.581 | 0.585
5 | EPLC-272H | 0.948 | 0.841 | 0.904 | 1.03 | 0.532 | 0.723 | 0.541 | 0.598 | 0.683 | 0.533 | 0.272 |  | 0.293 | 0.284 | 0.271 | 0.367 |  | 0.335 | 0.324 | 0.355
6 | NCI-H2023 | 0.644 | 0.6 | 0.612 | 0.593 | 0.621 | 1.17 | 0.71 | 0.818 | 0.702 | 0.943 | 0.554 | 0.442 | 0.444 | 0.509 | 0.529 | 0.25 | 0.285 | 0.208 | 0.218 | 0.213
7 | NCI-H358 | 0.612 | 0.618 | 0.439 | 0.446 | 0.375 | 0.541 | 0.57 | 0.623 | 0.786 | 0.493 | 0.131 | 0.131 | 0.127 | 0.135 | 0.12 | 0.204 | 0.208 | 0.216 | 0.206 | 0.182
8 | NCI-H1734 | 0.714 | 0.656 | 0.694 | 0.624 | 0.623 | 0.759 | 0.746 | 0.893 | 0.924 | 0.804 | 0.757 | 0.607 | 0.61 | 0.685 | 0.628 | 0.621 | 0.471 | 0.471 | 0.566 | 0.502
